From patent US20050074451A1, “Methods and compositions for treating rheumatoid arthritis” (Elan Pharmaceuticals, Inc., priority 2003, published 2005)
One block for each molecule: values may come before it.

Assays:
[1] = test system: Lewis rats with adjuvant induced arthritis; experiment: Adjuvant-induced arthritis (AIA) in Lewis rats: paw swelling, erythema, clinical and histological scores; assay type: in vivo, rat
[2] = test system: DBA/1 LacJ mice with collagen-induced arthritis; experiment: Murine collagen-induced arthritis (ClA) model, clinical scores; assay type: in vivo, mouse; settings: therapeutic ClA model, 100 mg/kg b.i.d. (Table 12)
Method: A murine collagen-induced arthritis (ClA) model was used to examine the pharmacological effect of anti-alpha4-integrin antibodies prophylactically, semi-therapeutically and therapeutically. Dosing of the antibody was begun on day 20 for the prophylactic animals. […] The results seen with the treatment of the ClA mice is seen in FIG. 1.
Peripheral blood leucocytes (PBLs) from mice treated with anti-alpha4, anti-α4β7 and anti-VCAM1 antibodies were collected at 4, 12 and 24 hours after antibody dosing. Cells were stained with goat anti-rat antibodies to confirm antibodies in circulation.
(§1) 100 DBA/1 LacJ male mice, ages 6-8 weeks were obtained from Jackson Laboratories. The mice were immunized at Day 0 as follows: 100 μg bovine type II collagen (Chondrex) in Complete Freund's adjuvant (CFA, Sigma) were injected into the mice. At Day 21, another 100 μg bovine type II collagen (Chondrex) in Incomplete Freund's Adjuvant (IFA, Sigma) was injected into the mice. Treatment with the compound began when the animals had the disease (i.e., 100% therapeutic).
The mice are scored daily after the boost. […] Treatment continued for 3-weeks-of dosing. Dosing was every other day for the antibody group and control group.
DBA/1 LacJ mice, aged 8 weeks will be immunized with bovine collagen (100 μg/mice) in CFA and re-challenge on day 21 in IFA.

[3] = Blood levels of compound in murine ClA model; assay type: in vivo; settings: male, DBA/1 LacJ, mouse, whole blood, 100 mg/kg b.i.d., 16 hours after dosing
Method: The effect of the compound of Formula P was evaluated in a therapeutica ClA model.
as §1

[4] = Blood/plasma levels of compound in rat ClA model (relative to receptor saturation); assay type: in vivo; settings: at 12 hours, all concentrations tested
Method: (§2) The results in FIG. 6 show the results for compounds. There were 8 rats per group in the efficacy study. Paw swelling and erythema were measured daily and the tarsal paws collected for histological analysis at the end of the study. Plasma which was heparinized was collected at 12 hours (i.e., the trough level) and at 4 horus after the last dose for compound measurement (FIG. 6).

[5] = Plasma/blood compound levels in AIA rats (PK, relative to receptor saturation); settings: 12 hours after dosing, all concentrations tested
rat ClA model = experiment: Rat ClA model, paw swelling and erythema, disease severity; assay type: in vivo; settings: antibody 3 mg/kg i.v., compounds 30, 10, 3 mg/kg b.i.d.
Method: Anti alpha-4 antibodies, and the compounds of Formulae W and Y were tested in the rat ClA model according to the methods shown in Table 14 below.
as §2

[6] = rat, in vivo, 3 mg/kg
VLA-4 = VLA-4 (Homo sapiens, UniProt P13612); settings: cited from earlier work
[7] = test system: human lymphocyte binding to rat brain cells; settings: rat brain cells stimulated with tumor necrosis factor; cited from earlier work

melting point: 158 to 160 °C
Molecule: Cc1ccc(S(=O)(=O)N2CCC[C@H]2C(=O)N[C@@H](Cc2ccc(OC(=O)N3CCN(CCO)CC3)cc2)C(=O)OC(C)(C)C)cc1

concentration at 16 h [3]: 1000 ng/mL
blood levels of the compound relative to receptor saturation [4]: above receptor saturation
levels of the compound relative to receptor saturation [5]: above receptor saturation
Molecule: CCN(CC)c1ncc(N(CC)S(=O)(=O)c2ccc(Cl)cc2)c(NC(Cc2ccc(OC(=O)N3CCCC3)cc2)C(=O)O)n1 (stereo not drawn) [Formula P]
disease ([1]; AIA rats, all concentrations tested (30, 10, 3 mg/kg b.i.d. p.o.)): ameliorate disease at all concentrations tested
disease progression [2]: no effect on disease progression

Molecule: CC(C)OC(=O)[C@H](Cc1ccc(OC(=O)N2CCN(C)CC2)cc1)NC(=O)[C@H]1N(S(=O)(=O)c2cccnc2)CSC1(C)C [Formula N, N-[N-(3-pyridinesulfonyl)-L-3,3-dimethyl-4-thiaprolyl]-O-[I-methylpiperazin-4-ylcarbonyl]-L-tyrosine isopropyl ester]
clinical and histological scores ([1]; AIA animal model, 30 mg/kg b.i.d.): ameliorate clinical and histological scores
disease severity ([1]; AIA rats, 3 mg/kg): no effect on disease severity
disease severity (rat ClA model): neither the compound of Formula N nor Y had any impact on disease severity
compound present in the blood relative to receptor saturation [6]: below receptor saturation

B1: mu MAb 21.6: mouse monoclonal antibody specific for the α4 subunit of VLA-4; donor immunoglobulin of the humanized antibodies (antibody, V domains shown)
VH: EVQLQQSGAELVKPGASVKLSCTASGFNIKDTYIHCVKQRPEQGLEWIGRIDPANGYTKYDPKFQGKATITADTSSNTAYLQLSSLTSEDTAVYFCAREGYYGNYGVYAMDYWGQGTSVTVSSAK
VL: DIQMTQSPSSLSASLGGKVTITCKTSQDINKYMAWYQHKPGKRPRLLIHYTSALQPGIPSRFSGSGSGRDYSFNISNLEPEDIATYYCLQYDNLWTFGGGTKLEIK
binding affinity for VLA-4 (VLA-4): about 10^9 M^−1
human lymphocyte binding to tissue cultures of rat brain cells [7]: inhibit
